# Target: α-Glucosidase from Saccharomyces cerevisiae (Saccharomyces cerevisiae, UniProt P53341)
# Experiment: In vitro α-glucosidase inhibition study
# Conditions: for inhibition at 25 µM: pH 6.8, read-out: Inhibition at 25 μM (%); for IC50: IC50, μM, average value ± standard deviation, p-nitrophenyl α-D-glucoside substrate, pH 6.8, 37 °C
# Sequence of α-Glucosidase from Saccharomyces cerevisiae (P53341 whole entry): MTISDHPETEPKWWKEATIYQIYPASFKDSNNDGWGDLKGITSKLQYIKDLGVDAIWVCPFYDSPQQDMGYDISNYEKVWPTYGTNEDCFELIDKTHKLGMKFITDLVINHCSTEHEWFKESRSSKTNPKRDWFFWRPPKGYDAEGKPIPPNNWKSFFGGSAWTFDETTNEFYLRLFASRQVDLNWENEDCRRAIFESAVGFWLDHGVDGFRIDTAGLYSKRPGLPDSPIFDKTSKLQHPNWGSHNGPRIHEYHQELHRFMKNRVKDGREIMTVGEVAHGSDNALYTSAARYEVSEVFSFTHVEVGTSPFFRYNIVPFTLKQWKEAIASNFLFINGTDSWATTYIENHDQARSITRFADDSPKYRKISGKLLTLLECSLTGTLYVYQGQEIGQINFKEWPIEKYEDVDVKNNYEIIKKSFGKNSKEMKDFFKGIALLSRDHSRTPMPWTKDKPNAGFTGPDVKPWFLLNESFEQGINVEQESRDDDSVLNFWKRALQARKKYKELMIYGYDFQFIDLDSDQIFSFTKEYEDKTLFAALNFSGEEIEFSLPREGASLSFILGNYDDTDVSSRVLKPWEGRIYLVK
SMILES,inhibition at 25 µM [%],IC50 [µM]
"O=c1c(-c2ccc(OC(F)(F)F)cc2)coc2cc(O)ccc12 [Compound 6j, 7-hydroxy-4′-trifluoromethoxyisoflavone]",39,
Cc1cc(=O)oc2c(Cn3ccnc3)c(O)ccc12 [Compound 9b],53.4,23.6 ± 1.8
O=c1c(-c2ccc(O)cc2)coc2c(Cn3ccnc3)c(O)ccc12 [Compound 9d],42,27 ± 0.2
Cc1cc(=O)oc2c(Cn3cnc4ccccc43)c(O)ccc12 [Compound 10b],69.3,21.1 ± 0.7
COc1ccc(-c2coc3c(Cn4cnc5ccccc54)c(O)ccc3c2=O)cc1 [Compound 10d],64.6,20.6 ± 2.1
COc1ccc(-c2c(C)oc3c(Cn4cnc5ccccc54)c(O)ccc3c2=O)cc1 [Compound 10f],48.6,25.5 ± 7.9
O=c1c(-c2ccc(OC(F)(F)F)cc2)coc2c(Cn3cnc4ccccc43)c(O)ccc12 [Compound 10h],99.1,9.5 ± 1.6
O=c1c(-c2ccc(OC(F)(F)F)cc2)coc2c(Cn3cccn3)c(O)ccc12 [Compound 11j],84.1,14.3 ± 2
Cc1cc(C)n(Cc2c(O)ccc3c(=O)c(-c4ccc(O)cc4)coc23)n1 [Compound 12c],42.8,27.4 ± 1.9
COc1ccc(-c2coc3c(Cn4nc(C)cc4C)c(O)ccc3c2=O)cc1 [Compound 12d],67.3,20.9 ± 2.5
Cc1cc(C)n(Cc2c(O)ccc3c(=O)c(-c4ccc(OC(F)(F)F)cc4)coc23)n1 [Compound 12i],94,5.8 ± 0.2
COc1ccc(-c2coc3c(Cn4ncc5ccccc54)c(O)ccc3c2=O)cc1 [Compound 13b],73,17.1 ± 2.8
COc1ccc(-c2coc3c(Cn4cc5ccccc5n4)c(O)ccc3c2=O)cc1 [Compound 14b],50.3,23.9 ± 2.3

# — PMC11367390 (RSC Advances, 2024)
